# Experiments:
# lsBSH = molecular target: T1, lsBSH (Ligilactobacillus salivarius, UniProt J7H3P9); assay: X-ray crystal structure, […] Å, crystal soaking; format: binding; settings: CA formed from soaked GCA; Cys2 oxidised (sulfonic form); active site of chains B, C, D, E, G and H
# T1 construct: recombinant from E. coli JL885 (pBSH vector), purified; initiator Met removed, N-terminal nucleophile Cys2; homotetramer; Cys2 oxidised (sulfonic, OCS) in the crystal
# [1] = molecular target: bile salt hydrolase from Lactobacillus salivarius (Lactobacillus salivarius NRRL B-30514); assay: crystal structure; apo lsBSH crystals (20% PEG 3,350, 0.2 M KH2PO4 pH 4.8, 20 °C) soaked with GCA for 4 h; space group P21; two tetramers in one asymmetric unit
# T1 sequence (J7H3P9 entry or part of it): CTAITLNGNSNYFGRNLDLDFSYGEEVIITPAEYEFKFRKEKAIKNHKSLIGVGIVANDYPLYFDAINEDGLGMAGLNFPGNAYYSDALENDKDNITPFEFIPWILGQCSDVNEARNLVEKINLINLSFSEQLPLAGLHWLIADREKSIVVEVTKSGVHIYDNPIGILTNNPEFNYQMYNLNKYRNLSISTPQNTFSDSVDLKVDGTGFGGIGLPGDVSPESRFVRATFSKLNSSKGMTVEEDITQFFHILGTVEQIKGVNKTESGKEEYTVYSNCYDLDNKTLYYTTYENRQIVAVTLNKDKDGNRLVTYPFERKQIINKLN
Molecule,"X-ray crystal structure, 2.10 Å, crystal soaking (lsBSH)",stoichiometry N [1]
"C[C@H](CCC(=O)O)[C@H]1CC[C@H]2[C@@H]3[C@H](O)C[C@@H]4C[C@H](O)CC[C@]4(C)[C@H]3C[C@H](O)[C@]12C [CA, cholic acid]",The lsBSH monomers were obtained bound to substrate GCA or product CA,–
bile salt hydrolase from Lactobacillus salivarius (enzyme),–,4

# Reference: paper PMC6711994 (Scientific Reports, 2019)
